{"source": "patent US20060189533A1", "about": "“Stable pharmaceutical dosage forms of teriparatide” (Nastech Pharmaceutical Company Inc., priority 2004, published 2006)", "origin": "cited, not measured here", "key": {"[1]": {"conditions": "up to 500 μg per day for 7 days; up to 1,000 μg per day for 3 months"}, "ovariectomized rat": {"test_system": "ovariectomized rat", "conditions": "ovariectomized rat model"}, "[2]": {"conditions": "anesthetized rats"}}, "note": "Where two headings read alike, the source gives them in different places. Where no end group is shown, it is not given here."}
{"molecule": "CC[C@H](C)[C@H](NC(=O)[C@H](CCC(=O)O)NC(=O)[C@H](CO)NC(=O)[C@@H](NC(=O)[C@@H](N)CO)C(C)C)C(=O)N[C@@H](CCC(N)=O)C(=O)N[C@@H](CC(C)C)C(=O)N[C@@H](CCSC)C(=O)N[C@@H](Cc1cnc[nH]1)C(=O)N[C@@H](CC(N)=O)C(=O)N[C@@H](CC(C)C)C(=O)NCC(=O)N[C@@H](CCCCN)C(=O)N[C@@H](Cc1cnc[nH]1)C(=O)N[C@@H](CC(C)C)C(=O)N[C@@H](CC(N)=O)C(=O)N[C@@H](CO)C(=O)N[C@@H](CCSC)C(=O)N[C@@H](CCC(=O)O)C(=O)N[C@@H](CCCN=C(N)N)C(=O)N[C@H](C(=O)N[C@@H](CCC(=O)O)C(=O)N[C@@H](Cc1c[nH]c2ccccc12)C(=O)N[C@@H](CC(C)C)C(=O)N[C@@H](CCCN=C(N)N)C(=O)N[C@@H](CCCCN)C(=O)N[C@@H](CCCCN)C(=O)N[C@@H](CC(C)C)C(=O)N[C@@H](CCC(N)=O)C(=O)N[C@@H](CC(=O)O)C(=O)N[C@H](C(=O)N[C@@H](Cc1cnc[nH]1)C(=O)N[C@@H](CC(N)=O)C(=O)N[C@@H](Cc1ccccc1)C(=O)O)C(C)C)C(C)C", "note": "[Teriparatide]", "values": [{"measurement": "safety of the intranasal route", "setting": "[1]", "value": "no safety concerns were noted"}]}
{"molecule": "hPTH1-31NH2: linear PTH analogue with only AC-stimulating activity, SEQ ID NO: 3 (SVSEIQLMHNLGKHLNSMERVEWLRKKLQDV-NH2; listed as Homo sapiens)", "values": [{"measurement": "activity in the restoration of bone loss", "setting": "ovariectomized rat", "value": "fully active"}]}
{"molecule": "human growth hormone: protein whose nasal bioavailability is reported to be modestly increased by N-acetyl-L-cysteine", "values": [{"measurement": "nasal bioavailability", "setting": "[2]; before increase by N-acetyl-L-cysteine", "value": 7.5, "unit": "%"}, {"measurement": "nasal bioavailability", "setting": "[2]; with N-acetyl-L-cysteine", "value": 12.2, "unit": "%"}]}
